Assays:
PDE4D = PDE4D (Homo sapiens, UniProt Q08499); test: Inhibitory action on PDE4 (homogenate of BHK cells expressing cloned human PDE4D, [3H]-cAMP hydrolysis); assay type: biochemical; details: average in triplicate measurements; 1 μM [3H]-cAMP substrate; read-out: PDE4 Inhibition IC50
Experimental: Inhibitory Action on PDE4: PDE4D was cloned from human placental mRNA by PCR techniques, and cDNA after an alternative spliced site (Mol. Cell. Biol., 13, 6558, 1993) was expressed in BHK cells. Two clones of BHK cells expressing PDE4 activity which was 100 or more times as high as endogenous PDE4 activity were obtained, and one of the clones was cultured in a large amount, and its homogenate was used as an enzyme source of PDE4.
50 mM Tris-HCl (pH 8.0), 0.1 mM EGTA, 0.1 mM MgCl2, 1 μM [^3H]-cGMP (100,000 dpm/tube) or 1 μM [^3H]-cAMP (100,000 dpm/tube) was added to the above homogenate, and 0.2 ml of the mixture was incubated at 30° C. for 10 to 20 minutes in the presence or absence of a test compound. The enzyme reaction was stopped by incubating the mixture at 95° C. for 1.5 minutes, and after cooling on ice, 50 μl nucleotidase (10 units/ml) was added thereto and incubated at 30° C. for 10 minutes. 550 μl of AG1-X2 resin slurry (H2O:resin=2:1) was added to the reaction mixture, then left at 4° C. for 10 minutes and centrifuged (10,000 rpm, 2.5 minutes, 4° C.), and 450 μl of the supernatant was measured for radioactivity.
The activity was compared in terms of IC50 (concentration of the compound at which 50% of the enzyme activity is inhibited) IC50 was determined by plotting of the concentration of cAMP as the substrate and the concentration of the compound on logarithmic graph paper. The results shown in Table 1 are the average in triplicate measurements. The test compound was first dissolved in DMSO and then diluted with the above-mentioned buffer for use.

TNFα production = test: Inhibitory action on production of TNFα (LPS-stimulated human peripheral blood monocyte fraction, ELISA); assay type: cell-based; details: LPS-stimulated human peripheral blood monocytes, incubation 18 to 24 hours, read-out: TNF^α Inhibition IC50
Experimental: Inhibitory Action on Production of TNF: Human peripheral blood was collected in […] and centrifuged (1000 rpm, 10 minutes, at room temperature) to remove platelet rich plasma, and then the blood sample was mixed with Hank's balanced salt solution (HBSS) (with an equal volume to the removed plasma) containing penicillin (100 units/ml) and streptomycin (100 μg/ml) (referred to hereinafter as “p, s”). Ficoll-paque (Pharmacia) with an volume of 3/5 relative to the sample mixture was layered on the lower layer and centrifuged at 1500 rpm for 30 minutes at room temperature, and the monocyte nucleus fraction was collected. The resulting monocyte nucleus fraction was washed twice with p, s-containing HBSS and prepared as a cell float at a cell density of 2-4×10^6 cells/ml in p, s-containing RPMI1640 (containing 10% FCS). 400 μl of the prepared cell float was added to a 48-wells culture plate, and 50 μl LPS (100 ng/ml of saline) and 50 μl of each of compound solutions prepared at various concentrations were added to each well, followed by incubation at 37° C. in a 5% CO2 mixed air. After incubation for 18 to 24 hours, the incubated buffer was separated, and TNFα thus released from the cells was measured by an ELISA kit (Amasham).
The inhibitory action of the compound on production of TNFα was determined in terms of IC50 by plotting the concentrations of the compound and the amount of produced TNFα (%relative to the control) on semilogarithmic graph paper. The control (100%) for the amount of TNFα produced was obtained by subtracting the amount of TNFα produced in the (basal) group where neither LPS nor the compound was added, from the amount of TNFα produced in the (control) group where the compound was not added.
After the compound was dissolved at a concentration of […] in DMSO solution containing the compound at a concentration which was 1000 times as high as the final concentration, and then the solution was diluted with RPMI1640 containing 10% FCS and p,s, to prepare a solution containing the compound at a concentration which was 10 times as high as the final concentration. In place of the compound solution, RPMI1640 (1% DMSO, 10% FCS) containing p, s was added to the control group basal group. In place of the LPS solution, physiological saline was added to the basal group.

ZDP rat = test: Blood sugar-depressing action (ZDP rat); assay type: in vivo
Experimental: Blood Sugar-Depressing Action (ZDP rat): A test compound was suspended in 0.5% MC, and the suspension was orally administered to an animal once every day for 1 week. After the administration, the rat was allowed to fast for 4 hours, and blood was collected from the tail vein, added immediately to 0.6 M HClO4 (0.6 M HClO4=1:9), and centrifuged to give a supernatant which was then measured for glucose level by Glocose CII Test Wako Kit (Wako Pure Chemical Industries, Ltd., JP). In the table, values in the parentheses under the blood sugar level (mg/dl) indicate glucose levels relative to those (=100%) before the administration of the test compound.

Sequence of PDE4D (Q08499 303-809 limits assumed): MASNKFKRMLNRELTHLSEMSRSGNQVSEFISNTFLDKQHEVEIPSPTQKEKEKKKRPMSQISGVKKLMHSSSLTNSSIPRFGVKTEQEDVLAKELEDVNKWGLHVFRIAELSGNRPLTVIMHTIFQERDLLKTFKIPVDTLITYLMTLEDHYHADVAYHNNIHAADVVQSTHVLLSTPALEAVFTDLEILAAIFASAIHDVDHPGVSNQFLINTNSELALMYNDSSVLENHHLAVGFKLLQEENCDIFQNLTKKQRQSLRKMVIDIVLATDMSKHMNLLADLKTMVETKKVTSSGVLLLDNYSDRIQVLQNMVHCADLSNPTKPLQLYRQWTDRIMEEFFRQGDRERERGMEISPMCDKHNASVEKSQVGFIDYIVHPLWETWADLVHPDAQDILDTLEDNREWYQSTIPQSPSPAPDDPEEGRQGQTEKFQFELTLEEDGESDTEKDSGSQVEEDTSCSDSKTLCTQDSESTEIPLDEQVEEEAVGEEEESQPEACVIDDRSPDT

Structure (SMILES) | IC50 (PDE4D) [nM] | IC50 (TNFα production) [nM] | melting point [°C] | Blood sugar level, Before the administration (ZDP rat; baseline before the administration of the test compound) [mg/dL] | Blood sugar level, After the continuous administration for 1 week (ZDP rat; oral, once every day for 1 week, 4 hours fast, tail vein blood) [mg/dL] | Glucose level relative to that (=100%) before the administration, after the continuous administration for 1 week (ZDP rat; oral, once every day for 1 week, value in parentheses)
CNc1nc(-c2cccc(NC(=O)c3ccc(OC)c(OC4CCCC4)c3)c2)c2cc(OC)c(OC)cc2n1 [Example 17, 4-[3-(3-Cyclopentyloxy-4-methoxybenzoylamino)phenyl]-6,7-dimethoxy-2-methylaminoquinazoline] | 4.2 | – | 129 to 131 | – | – | –
CNc1nc(-c2cccc(NC(=O)c3ccc(OC)c(Cl)c3)c2)c2cc(OC)c(OC)cc2n1 [Example 18, 4-[3-(3-Chloro-4-methoxybenzoylamino)phenyl]-6,7-dimethoxy-2-methylaminoquinazoline] | 1.4 | 3.3 | 130 to 132 | – | – | –
CNc1nc(-c2cccc(NC(=O)c3ccc(O)cc3)c2)c2cc(OC)c(OC)cc2n1 [Example 21, 6,7-Dimethoxy-4-[3-(4-hydroxybenzoylamino)phenyl]-2-methylaminoquinazoline] | 2.2 | – | 178 to 180 | – | – | –
CNc1nc(-c2cccc(NC(=O)c3ccc(N4CCCC4)nc3)c2)c2cc(OC)c(OC)cc2n1 [Example 31, 6,7-Dimethoxy-2-methylamino-4-[3-(6-pyrrolidinonicotinoylamino)phenyl]quinazoline] | 2.5 | – | 239 to 241 | – | – | –
CNc1nc(-c2cccc(NC(=O)c3ccnc(N4CCCC4)c3)c2)c2cc(OC)c(OC)cc2n1 [Example 34] | 3.1 | – | 135 to 137 | – | – | –
CNc1nc(-c2cccc(N3Cc4ccccc4C3)c2)c2cc(OC)c(OC)cc2n1 [Example 44, 6,7-Dimethoxy-4-[3-(2-isoindolynyl)phenyl]-2-methylaminoquinazoline] | 2.5 | – | 194 to 196 | – | – | –
CNc1nc(-c2cccc(N3Cc4ccccc4C3=O)c2)c2cc(OC)c(OC)cc2n1 [Example 45, 6,7-Dimethoxy-4-[3-(1-oxo-2-isoindolynyl)phenyl]-2-methylaminoquinazoline] | 0.72 | – | 230 to 232 | – | – | –
CNc1nc(-c2cccc(-c3ccc(SC)cc3)c2)c2cc(OC)c(OC)cc2n1 [Example 52, 6,7-Dimethoxy-2-methylamino-4-(4′-methylthio-3-biphenylyl)quinazoline] | 1.8 | – | 140 to 142 | – | – | –
CNc1nc(-c2cccc(-c3cccc(SC)c3)c2)c2cc(OC)c(OC)cc2n1 [Example 54, 6,7-Dimethoxy-2-methylamino-4-(3′-methylthio-3-biphenylyl)quinazoline] | 1.7 | – | 195 to 197 | – | – | –
CNc1nc(-c2cccc(-c3cncc(SC)c3)c2)c2cc(OC)c(OC)cc2n1 [Example 58, 6,7-Dimethoxy-2-methylamino-4-[3-(5-methylthio-3-pyridyl)phenyl]quinazoline] | 2.8 | – | 184 to 186 | – | – | –
CCOc1cc2nc(NC)nc(-c3cccc(-c4cnc5ccccc5c4)c3)c2cc1OCC [Example 60, 6,7-Diethoxy-2-methylamino-4-[3-(3-quinolyl)phenyl]quinazoline] | 0.22 | – | 157 to 159 | – | – | –
CCOc1cc2nc(NC)nc(-c3cccc(-c4cncc(SC)c4)c3)c2cc1OCC [Example 61, 6,7-Diethoxy-2-methylamino-4-[3-(methylthio-3-pyridyl)phenyl]quinazoline] | 0.6 | – | 105 to 107 | – | – | –
CCOc1cc2nc(NC)nc(-c3cccc(-c4cncc([S+](C)[O-])c4)c3)c2cc1OCC (centres unmarked) [Example 62] | 1.9 | – | 188 to 190 | 478.6 ± 24.0 | 369.1 ± 37.3 | (77.1) %
CNc1nc(-c2cccc(-c3cncc(-c4ccccc4)c3)c2)c2cc(OC)c(OC)cc2n1 [Example 63, 6,7-Dimethoxy-2-methylamino-4-[3-(5-phenyl-3-pyridyl)phenyl]quinazoline] | 0.6 | – | 200 to 202 | – | – | –
CNc1nc(-c2cccc(-c3cnc4c(C)cccc4c3)c2)c2cc(OC)c(OC)cc2n1 [Example 64, 6,7-Dimethoxy-4-[3-(8-methyl-3-quinolyl)phenyl]-2-methylaminoquinazoline] | 0.19 | – | 188 to 190 | – | – | –
CNc1nc(-c2cccc(C#Cc3ccccc3)c2)c2cc(OC)c(OC)cc2n1 [Example 65, 6,7-Dimethoxy-2-methylamino-4-[3-(2-phenylethynyl)phenyl]quinazoline] | 2.5 | – | 102 to 104 | – | – | –

The remaining compounds from weak to strong by IC50 (PDE4D), led by results:

IC50 (PDE4D) [nM] | IC50 (TNFα production) [nM] | melting point [°C] | Structure (SMILES) | Blood sugar level, Before the administration (ZDP rat; baseline before the administration of the test compound) [mg/dL] | Blood sugar level, After the continuous administration for 1 week (ZDP rat; oral, once every day for 1 week, 4 hours fast, tail vein blood) [mg/dL] | Glucose level relative to that (=100%) before the administration, after the continuous administration for 1 week (ZDP rat; oral, once every day for 1 week, value in parentheses)
8.5 | 4.7 | 228 to 230 | CNc1nc(-c2cccc(NC(=O)c3ccncc3)c2)c2cc(OC)c(OC)cc2n1 [Example 2, 6,7-Dimethoxy-2-methylamino-4-[3-(4-pyridinecarbonylamino)phenyl]quinazoline] | – | – | –
4 | 1.6 | 128 to 130 | CNc1nc(-c2cccc(NC(=O)c3ccc(OC)c(OC)c3)c2)c2cc(OC)c(OC)cc2n1 [Example 14, 6,7-Dimethoxy-4-[3-(3,4-dimethoxybenzoylamino)phenyl]-2-methylaminoquinazoline] | – | – | –
3.2 | – | 181 to 183 | CNc1nc(-c2cccc(-c3cncc4ccccc34)c2)c2cc(OC)c(OC)cc2n1 [Example 51, 6,7-Dimethoxy-2-methylamino-4-[3-(4-isoquinolyl)phenyl]quinazoline] | – | – | –
2.6 | – | 149 to 151 | CNc1nc(-c2cccc(NC(=O)c3ccc(N(C)C)nc3)c2)c2cc(OC)c(OC)cc2n1 [Example 30, 6,7-Dimethoxy-4-[3-(6-dimethylaminonicotinoylamino)phenyl]-2-methylaminoquinazoline] | – | – | –
1.2 | – | 193 to 195 | CNc1nc(-c2cccc(-c3cccc(-c4ccccc4)c3)c2)c2cc(OC)c(OC)cc2n1 [Example 56, 6,7-Dimethoxy-2-methylamino-4-(3′-phenyl-3-biphenylyl)quinazoline] | – | – | –
1.1 | 1.7 | 218 to 220 | CNc1nc(-c2cccc(-c3cnc4ccccc4c3)c2)c2cc(OC)c(OC)cc2n1 [Example 49, 6,7-Dimethoxy-2-methylamino-4-[3-(3-quinolyl)phenyl]quinazoline] | – | – | –
0.63 | – | 153 to 155 | CNc1nc(-c2cccc(-c3ccc([S+](C)[O-])cc3)c2)c2cc(OC)c(OC)cc2n1 (centres unmarked) [Example 53, 6,7-Dimethoxy-2-methylamino-4-(4′-methylsulfinyl-3-biphenylyl)quinazoline] | – | – | –

— patent publication US6352989B1, “Nitrogenous heterocyclic derivatives and medicine thereof” (Eisai Co., Ltd., priority 1998, dated 2002)
